From ChEMBL document CHEMBL4421718, “Quinoxaline derivatives as gpr6 modulators” (2015) come the findings set out here.

The target in test [1] is G-protein coupled receptor 6 (Homo sapiens, UniProt P46095). The test can be described thus: Modulation activity at GPR6 receptor (unknown origin) expressed in CHO-K1 cells assessed as inhibition of constitutive cAMP activity incubated for 45 mins by Perkin Elmer Lance HTRF Ultrac-AMP assay. Type of test: functional, cell-based. On the technique in general: TR-FRET usually uses a lanthanide donor and a delayed reading to cut background.
Chain of G-protein coupled receptor 6 (P46095 whole entry): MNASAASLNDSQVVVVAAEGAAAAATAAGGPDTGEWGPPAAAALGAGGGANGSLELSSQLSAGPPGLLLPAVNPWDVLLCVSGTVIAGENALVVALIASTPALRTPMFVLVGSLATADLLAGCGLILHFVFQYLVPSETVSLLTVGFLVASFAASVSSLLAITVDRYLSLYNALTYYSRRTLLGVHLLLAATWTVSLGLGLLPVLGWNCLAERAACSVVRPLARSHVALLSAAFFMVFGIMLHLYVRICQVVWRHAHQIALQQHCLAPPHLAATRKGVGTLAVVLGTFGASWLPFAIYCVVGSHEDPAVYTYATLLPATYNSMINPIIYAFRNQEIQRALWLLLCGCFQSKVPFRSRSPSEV

Test [2] relates to Rattus norvegicus. The test can be described thus: Reversal of haloperidol-induced catalepsy in Sprague-Dawley rat model of Parkinson's disease assessed as reduction in catalepsy intensity index at 10 mg/kg, sc dosed along with haloperidol and measured after 30 mins relative to untreated control. The test is classed as functional. Set-up: scale not given: the % may be the effect or the level left.

The subject of test [3] is Mus musculus. The test can be described thus: Reversal of haloperidol-induced catalepsy in C57BL6 mouse model of Parkinson's disease assessed as reduction in catalepsy intensity index at 10 mg/kg, sc dosed along with haloperidol and measured after 120 mins relative to untreated control. The test is classed as functional. The arrangement: scale not given: the % may be the effect or the level left.

In test [4] the test system is Mus musculus. Nature of the test: Reversal of haloperidol-induced catalepsy in C57BL6 mouse model of Parkinson's disease assessed as reduction in catalepsy intensity index at 30 mg/kg, ip dosed along with haloperidol and measured after 30 mins relative to untreated control. Type of test: functional. The arrangement: scale not given: the % may be the effect or the level left.

Test [5] concerns Mus musculus. The test can be described thus: Reversal of haloperidol-induced catalepsy in C57BL6 mouse model of Parkinson's disease assessed as reduction in catalepsy intensity index at 30 mg/kg, ip dosed along with haloperidol and measured after 120 mins relative to untreated control. The arrangement: scale not given: the % may be the effect or the level left. The test is classed as functional.

The subject of test [6] is Mus musculus. The test can be described thus: Reversal of haloperidol-induced catalepsy in C57BL6 mouse model of Parkinson's disease assessed as reduction in catalepsy intensity index at 10 mg/kg, ip dosed along with haloperidol and measured after 120 mins relative to untreated control. The arrangement: scale not given: the % may be the effect or the level left. Type of test: functional.

For test [7], the system named is Mus musculus. Nature of the test: Reversal of haloperidol-induced catalepsy in C57BL6 mouse model of Parkinson's disease assessed as reduction in catalepsy intensity index at 10 mg/kg, ip dosed along with haloperidol and measured after 30 mins relative to untreated control. Type of test: functional. Set-up: scale not given: the % may be the effect or the level left.

One may read the IC50 as the concentration at which inhibition is half-maximal.

Regarding `CC(C)Nc1nc2ccc(C#N)cc2nc1N1CCC([C@H](F)c2cc(F)ccc2F)CC1`, the half-maximal inhibitory concentration (IC50) in test [1] was found to be 0.082 µM.

As to `CN1CCN(C(=O)c2cc3nc(NC4CC4)c(N4CCC(C(=O)c5cc(C#N)ccc5F)CC4)nc3cn2)CC1`, the IC50 in test [1] was determined as 0.054 µM.

In the case of `Fc1ccc(CC2CCN(c3nc4cnccc4nc3NC3CC3)CC2)c(F)c1`, the IC50 in test [1] stood at 0.019 µM.

On to `Fc1ccc(OC2CCN(c3nc4cnccc4nc3NC3CC3)CC2)c(F)c1`, for which, in test [1], the 50% inhibitory concentration (IC50) was found to be 1.1 µM.

In the case of `COc1ccc(C(=O)C2CCN(c3nc4cnccc4nc3NC3CC3)CC2)c(F)c1`, the IC50 in test [1] is 0.021 µM.

As for `N#Cc1ccc2nc(NC3CC3)c(N3CCC(Cc4ccc(F)cc4F)CC3)nc2c1.O=C(O)C(F)(F)F`, the Activity in test [2] stood at 36.9%; in test [3], 25.1%.

Turning to `CC(C)Nc1nc2ccc(C#N)cc2nc1N1CCN(Cc2cc(Cl)ccc2Cl)CC1`, the half-maximal inhibitory concentration (IC50) in test [1] amounted to 0.31 µM.

With `Clc1ccc(Cl)c(CN2CCN(c3nc4ccccc4nc3NC3CC3)CC2)c1.O=C(O)C(F)(F)F`, the values for the Activity in test [4] and in test [5] were 48.1% and 41.4%, respectively.

For the molecule `Cc1nncc2nc(N3CCC(Oc4ccc(F)cc4F)CC3)c(NC(C)C)nc12`, the IC50 in test [1] turned out to be 0.031 µM.

As for `N#Cc1ccc2nc(NC3CC3)c(N3CCN(Cc4cc(Cl)ccc4Cl)CC3)nc2c1`, the Activity in test [4] came out at 27.4%; in test [5], 15.7%; in test [6], 18.8%; in test [7], 42%.

Regarding `Fc1ccc(F)c(CN2CCN(c3nc4cncc(Cl)c4nc3NC3CC3)CC2)c1`, the IC50 in test [1] amounted to 0.062 µM.

As for `Cc1cccc(CN2CCN(c3nc4ncccc4nc3NC3CC3)CC2)c1`, the 50% inhibitory concentration (IC50) in test [1] fell in the range of 0.84 to 24.6 µM.

With `Clc1cccc(Cl)c1CN1CCN(c2nc3ccccc3nc2NC2CC2)CC1.O=C(O)C(F)(F)F`, the Activity in test [4] was 40.4%; in test [5] it was 29.6%.

For the molecule `C[C@H](CO)Nc1nc2ccccc2nc1N1CCN(Cc2cc(Cl)ccc2Cl)CC1`, the IC50 in test [1] was found to be 1.57 µM.

Take `COc1ccc(OC2CCN(c3nc4c(N5CCOCC5)nccc4nc3NC3CC3)CC2)c(F)c1`: in test [1], the IC50 came to 0.114 µM.

Regarding `Fc1ccc(CN2CCN(c3nc4cnccc4nc3NC3CC3)CC2)c(F)c1`, in test [1], the concentration for half-maximal inhibition (IC50) came to 0.021 µM.

Consider `Cc1nnc(C)c2nc(N3CCC(Oc4ccc(F)cc4F)CC3)c(NC(C)C)nc12`, for which the IC50 in test [1] was 0.06 µM.

As to `CC(C)Nc1nc2ccccc2nc1N1CCC(Oc2ccc(Cl)cc2F)CC1`, the IC50 in test [1] worked out at 0.051 µM.

Consider `COc1ccc(C(=O)C2CCN(c3nc4c(N5CCOCC5)nccc4nc3NC3CC3)CC2)c(F)c1`, for which the half-inhibitory concentration (IC50) in test [1] came out at 0.717 µM.

In the case of `COc1ccc(OC2CCN(c3nc4cnncc4nc3NC3CC3)CC2)c(F)c1`, the IC50 in test [1] is 0.036 µM.

As for `COc1ccc(C(=O)N2CCN(c3nc4ccccc4nc3NC3CC3)CC2)cc1Cl`, in test [1], the half-inhibitory concentration (IC50) lay within 10.1 to 17.7 µM.

With `Clc1cccc(CN2CCN(c3nc4ccccc4nc3Nc3cccnc3)CC2)c1.O=C(O)C(F)(F)F`, the Activity in test [4] is reported as 13.6%; in test [5] it was 15.4%.

Take `CC1CC1Nc1nc2cnncc2nc1N1CCC([C@@H](F)c2ccc(F)cc2F)CC1` (stereo partly specified): in test [1], the IC50 came out at 0.145 µM.

As for `COc1ccc(C(=O)C2CCN(c3nc4c(C#N)nccc4nc3NC3CC3)CC2)c(F)c1`, the IC50 in test [1] turned out to be 0.043 µM.
